# Tested on: not given
# Assay: not given
# Conditions: not given
row,Structure (SMILES),melting point
1,"CC(=O)NCCNc1nc(Nc2cccc(NC(C)=O)c2)ncc1C(F)(F)F [Example 10(000), N-(2-[2-(3-acetylamino-phenylamino)-5-trifluoromethyl-pyrimidin-4-ylamino]-ethyl)-acetamide]",222 °C
2,"CNC(=O)c1ccc(Nc2ncc(C(F)(F)F)c(NCCNC(C)=O)n2)cc1 [Example 8, 4-[4-(2-acetylamino-ethylamino)-5-trifluoromethyl-pyrimidin-2-ylamino]-N-methyl-benzamide]",183 °C
3,"O=C(NCCNc1nc(Nc2ccc(Cl)c(Cl)c2)ncc1C(F)(F)F)c1ccccc1 [Example 7, N-(2-[2-(3,4-dichloro-phenylamino)-5-trifluoromethyl-pyrimidin-4-ylamino]-ethyl)-benzamide]",160 to 162 °C
4,"CC(=O)NCCNc1nc(Nc2ccc(C(=O)O)cc2)ncc1C(C)C [Example 6, 4-[4-(2-acetylamino-ethylamino)-5-isopropyl-pyrimidin-2-ylamino]-benzoic acid]",275 to 278 °C
5,"CC(=O)NCCNc1nc(Nc2ccc(Cl)c(Cl)c2)ncc1[N+](=O)[O-] [Example 1, 2-(3,4-dichlorophenylamino)-4-(2-acetylamino-ethylamino)-5-nitro-pyrimidine]",200 to 201 °C
6,"CC(=O)NCCNc1nc(Nc2cccc(CN3CCCCC3)c2)ncc1C(F)(F)F [Example 11, N-{2-[2-(3-piperidin-1-ylmethyl-phenylamino)-5-trifluoromethyl-pyrimidin-4-ylamino]-ethyl}-acetamide]",93 to 94 °C
7,CC(=O)NCCNc1nc(Nc2ccc(C(=O)O)cc2)ncc1[N+](=O)[O-].Cl,171 to 173 °C
8,"CC(=O)NCCNc1nc(Nc2cccc(C(=O)O)c2)ncc1C(F)(F)F [Example 9, 3-[4-(2-acetylamino-ethylamino)-5-trifluoromethyl-pyrimidin-2-ylamino]-benzoic acid]",282 °C

# Target: T1, CDK1/cyclinB1 (Homo sapiens, UniProt P06493)
# T1 construct: made in house; host or cells: High Five insect cells (Trichoplusia ni), baculovirus coinfection
# Assay: Cyclin B1-CDK1 kinase inhibition test
# Assay type: biochemical
# Conditions: CDK1 tests (Example 13); recombinant cyclin B1/CDK1, substrate histone H1; read-out: CDK1/cyclinB1 IC50 value
# In short: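 Baculovirus-expressed CDK1/cyclin B1 phosphorylated histone H1 with ATP mix containing 0.045 mM ATP plus ^33P-ATP for 30 min at 30 °C. Protein was precipitated with TCA and filter-bound radioactivity read by scintillation counting. Olomoucin at 30 and 300 μM final served as internal control.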
# T1 sequence (P06493 whole entry): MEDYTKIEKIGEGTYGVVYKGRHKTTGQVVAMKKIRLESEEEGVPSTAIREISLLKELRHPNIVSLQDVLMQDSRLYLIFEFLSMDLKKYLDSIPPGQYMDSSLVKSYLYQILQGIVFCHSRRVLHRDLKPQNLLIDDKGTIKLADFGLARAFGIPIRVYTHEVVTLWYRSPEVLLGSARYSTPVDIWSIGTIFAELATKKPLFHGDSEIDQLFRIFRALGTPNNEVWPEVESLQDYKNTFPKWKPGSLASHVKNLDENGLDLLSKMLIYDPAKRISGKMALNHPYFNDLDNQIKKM
# T1 sequence (P14635 whole entry partner): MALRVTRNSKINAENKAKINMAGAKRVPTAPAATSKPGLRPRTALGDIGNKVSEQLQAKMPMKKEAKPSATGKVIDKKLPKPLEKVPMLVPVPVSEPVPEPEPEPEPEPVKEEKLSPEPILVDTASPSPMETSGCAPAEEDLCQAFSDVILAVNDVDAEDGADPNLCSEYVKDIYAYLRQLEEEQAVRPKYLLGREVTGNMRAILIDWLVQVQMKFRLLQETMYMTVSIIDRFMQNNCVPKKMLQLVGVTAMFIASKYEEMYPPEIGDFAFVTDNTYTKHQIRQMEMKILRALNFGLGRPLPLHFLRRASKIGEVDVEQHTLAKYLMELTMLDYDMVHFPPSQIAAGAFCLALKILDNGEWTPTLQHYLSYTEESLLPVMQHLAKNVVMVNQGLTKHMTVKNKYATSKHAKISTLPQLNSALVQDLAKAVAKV
row,Structure (SMILES),IC50
1,"CC(=O)NCCNc1nc(Nc2cccc(NC(C)=O)c2)ncc1C(F)(F)F [Example 10(000), N-(2-[2-(3-acetylamino-phenylamino)-5-trifluoromethyl-pyrimidin-4-ylamino]-ethyl)-acetamide]",< 100 nM
2,"CC(C)NC(=O)NCCCNc1nc(Nc2ccc3cnn(C)c3c2)ncc1C(F)(F)F [Example 7(036), 1-isopropyl-3-{3-[2-(1-methyl-1H-indazol-6-ylamino)-5-trifluoromethyl-pyrimidin-4-ylamino]-propyl}-urea]",< 100 nM

# Tested on: cell culture
# Assay: not given
# Conditions: Ongkeko et al., 1995, J. Cell Sci., 108, 2897; cited from earlier work
row,Structure (SMILES),effect with cytotoxic substances in cell culture
1,Cn1cnc2c(NCc3ccccc3)nc(NCCO)nc21 [olomoucine],synergistic effect
